# Measurements reported in patent US20160137968A1, “TISSUE CULTURE TESTING SYSTEMS AND METHODS OF USE” (Barry University, priority 2014, published 2016).
# What was measured:
# P. aeruginosa = experiment: Bioburden reduction in infected full-thickness skin tissue samples in Franz cells (total CFUs); assay type: cell-based; details: 1 ATM, 0.1 liters/minute
# Description: (§1) After an infection period is over, tissue samples can be homogenized, and serial dilutions can be grown on LB agar plates in order to facilitate the counting of colony formation units (CFUs), which approximate the level of bacteria present in the sample after infection. Other methods of quantifying infection and the various manifestations of infection are also possible, as would be recognized by one of ordinary skill in the art based on the present disclosure. For example, activation of various cytokines can be measured, as well as gene expression (upregulation and/or down regulation) of various genetic regulators of inflammatory and immune responses taking place in cells and tissues. These experimental procedures allow for the investigation of various experimental factors and perturbations, such as NO pressures, exposure times, and flow rates, in the context of skin infection and how they may influence bioburden reduction and wound healing.
# (§2) In FIG. 4, the growth curves of several pathogenic bacteria are shown, including MRSA, Acinetobacter and Pseudomonas. In order to determine whether a given set of experimental factors or perturbations relating to NO exposure reduces bioburden, tissue samples were infected with the same concentration of bacteria under the same experimental conditions. […] In some aspects, 15 μl of a bacterial culture is sufficient to infect a cell or tissue sample.
# (§3) Full-thickness skin tissue samples (e.g., EPIDERM tissue model from MatTek Corp., Ashland, Mass. 01721) were exposed to various experimental factors. […] The skin samples used were infected with S. aureus for 24 hours, followed by 90 minutes of pressurized exposure at a flow rate of 0.1 liters/minute.
# (§4) The samples used were infected with Staphylococcus, MRSA, Acinetobacter or Pseudomonas.
# (§5) Experiments were also conducted as described above in the previous examples to determine the minimum amount of exposure time necessary to obtain maximum reductions in bioburden. In some cases, determining the minimum tissue exposure time to gNO can reduce any potentially detrimental effects on the health of the tissue, while still reducing bioburden. Flow rate was maintained at 0.1 liters/minute, but the exposure time was shortened to 60 minutes at 1 ATM (independent of and in addition to the pressure applied by the external environment).
# MRSA = experiment: as above; assay type: cell-based; details: 1 ATM, 0.1 liters/minute
# Description: as §1, §2, §3, §4, §5
# A. baumannii = experiment: as above; assay type: cell-based; details: 1 ATM, 0.1 liters/minute
# Description: as §1, §2, §3, §4, §5
# [1] = system: full-thickness skin tissue samples; experiment: Tissue viability using MTT assays; assay type: cell-based, human
# Method: Experiments were also conducted to investigate the effects of various NO pressures, exposure times, and flow rates on tissue viability using MTT assays. An MTT assay is a colorimetric assay for assessing cell viability. NAD(P)H-dependent cellular oxidoreductase enzymes may, under defined conditions, reflect the number of viable cells present. These enzymes are capable of reducing the tetrazolium dye MTT 3-(4,5-dimethylthiazol-2-yl)-2,5-diphenyltetrazolium bromide to its insoluble formazan, which has a purple color. Other closely related tetrazolium dyes including XTT, MTS and the WSTs, can also be used. Tetrazolium-based dye assays can also be used to measure cytotoxicity (loss of viable cells) or cytostatic activity (shift from proliferation to quiescence) of potential medicinal agents and toxic materials.
# S. aureus = experiment: Bioburden reduction in infected full-thickness skin tissue samples in Franz cells (total CFUs); assay type: cell-based, Staphylococcus aureus; details: 0.1 liters/minute
# Description: as §1, §2, §3, §4, §5
# Experiments were also conducted as described above in the previous examples to determine the minimum amount of gNO pressure necessary to obtain maximum reductions in bioburden. In some cases, determining the minimum amount of gNO pressure can reduce any potentially detrimental effects on the health of the tissue, while still reducing bioburden.
smiles,measurement,setting,value
"[N]=O [gNO, Nitric Oxide]",log reduction in bioburden,"P. aeruginosa; P. aeruginosa, 1% NO, 90 min, infected 24 hours",5-6 log
same,reduction of bioburden compared to controls,"P. aeruginosa; P. aeruginosa, 60 minutes",effective
same,bacterial bioburden (CFUs),"P. aeruginosa; Pseudomonas, 1% NO, 120 minutes, 24 hours of infection",completely eliminated
same,bacterial bioburden (CFUs),"MRSA; 1% NO, 120 minutes, 24 hours of infection",completely eliminated
same,log reduction in bioburden,"MRSA; 1% NO, 90 min, infected 24 hours",5-6 log
same,reduction of bioburden compared to controls,MRSA; 60 minutes,did not show significant reduction of bioburden
same,log reduction in bioburden,"A. baumannii; A. baumannii, 1% NO, 90 min, infected 24 hours",5-6 log
same,reduction of bioburden compared to controls,"A. baumannii; A. baumannii, 60 minutes",effective
same,bacterial bioburden (CFUs),"A. baumannii; Acinetobacter, 1% NO, 120 minutes, 24 hours of infection",completely eliminated
same,tissue viability (MTT),"[1]; 1% NO with or without pressure, as exposure time decreased",viability increased
same,tissue viability (MTT),[1]; combination of pressurized gNO and increasing concentrations of NO,caused a decrease in viability
same,bioburden reduction,"S. aureus; NO at 0.25 ATM, 90 minutes, infected 24 hours",sufficient to reduce bioburden
same,bioburden reduction,"S. aureus; NO at 0.3 ATM, 90 minutes, infected 24 hours",sufficient to reduce bioburden
same,log reduction in bioburden,"S. aureus; S. aureus (biofilm-forming), 1% NO, 90 min, 1 ATM, infected 24 hours",~3 log
same,reduction of bioburden compared to controls,"S. aureus; S. aureus, 60 minutes, 1 ATM",did not show significant reduction of bioburden
same,bacterial bioburden (CFUs),"S. aureus; Staphylococcus, 1% NO, 1 ATM, 120 minutes, 24 hours of infection",completely eliminated
same,bioburden (total CFUs),"S. aureus; pressurized gNO at 1 ATM compared to 0 ATM, 90 minutes, infected 24 hours",did significantly reduce bioburden
